Data set [1] concerns the target T1, Prostaglandin G/H synthase 1 (Ovis aries, UniProt P05979).
T1 sequence (P05979 whole entry): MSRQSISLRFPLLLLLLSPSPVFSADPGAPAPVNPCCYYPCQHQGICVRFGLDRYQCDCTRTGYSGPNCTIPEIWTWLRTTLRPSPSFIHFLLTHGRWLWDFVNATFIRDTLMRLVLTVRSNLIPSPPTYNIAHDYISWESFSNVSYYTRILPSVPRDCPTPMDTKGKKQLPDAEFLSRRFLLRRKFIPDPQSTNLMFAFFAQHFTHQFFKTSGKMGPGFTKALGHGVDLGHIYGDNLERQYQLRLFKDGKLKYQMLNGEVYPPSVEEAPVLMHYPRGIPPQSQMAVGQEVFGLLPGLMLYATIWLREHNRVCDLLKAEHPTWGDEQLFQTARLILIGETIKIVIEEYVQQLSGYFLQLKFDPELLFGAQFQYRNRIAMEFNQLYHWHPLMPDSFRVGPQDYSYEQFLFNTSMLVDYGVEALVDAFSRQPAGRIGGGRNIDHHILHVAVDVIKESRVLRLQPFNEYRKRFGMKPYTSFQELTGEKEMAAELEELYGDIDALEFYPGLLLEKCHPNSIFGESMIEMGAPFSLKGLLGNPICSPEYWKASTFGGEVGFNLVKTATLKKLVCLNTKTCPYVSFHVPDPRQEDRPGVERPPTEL
Description: Inhibition of ovine COX1 after 5 mins

Data set [2] in a line: Modulation of gamma-secretase-mediated cleavage of human APP expressed in CHO cells with human presenilin-1 assessed as activation of amyloid beta38 production after 24 hrs by ELISA. In kind it is cell-based.
Data set [3] addresses T2, Peroxisome proliferator-activated receptor gamma (Homo sapiens, UniProt P37231).
T2 sequence (P37231 whole entry): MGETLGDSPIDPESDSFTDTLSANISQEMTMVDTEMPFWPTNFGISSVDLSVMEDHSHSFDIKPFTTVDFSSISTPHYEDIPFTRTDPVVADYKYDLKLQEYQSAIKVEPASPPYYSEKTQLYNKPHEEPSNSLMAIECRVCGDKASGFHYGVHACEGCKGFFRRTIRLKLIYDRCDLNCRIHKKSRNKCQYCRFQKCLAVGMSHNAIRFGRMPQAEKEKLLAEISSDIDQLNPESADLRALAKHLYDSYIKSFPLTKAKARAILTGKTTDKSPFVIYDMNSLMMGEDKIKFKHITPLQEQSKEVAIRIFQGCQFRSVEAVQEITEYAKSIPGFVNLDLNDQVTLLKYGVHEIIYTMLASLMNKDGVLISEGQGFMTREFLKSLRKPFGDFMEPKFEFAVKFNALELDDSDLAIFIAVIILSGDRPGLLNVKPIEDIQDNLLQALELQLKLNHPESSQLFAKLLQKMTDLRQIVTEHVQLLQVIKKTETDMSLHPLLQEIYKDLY
The data set can be described thus: Agonist activity at human PPARgamma-LBD expressed in COS7 cells co-transfected with Gal4 by luciferase based transactivation assay. The format is functional, cell-based, COS-7.

The target in data set [4] is T3, Peroxisome proliferator-activated receptor gamma (Homo sapiens) (UniProt P37231).
T3 sequence (whole entry): T2 sequence (P37231 whole entry)
The data set can be described thus: Agonist activity at human PPARgamma-LBD expressed in COS7 cells co-transfected with Gal4 by luciferase based transactivation assay relative to pioglitazone. In kind it is functional, cell-based. As to conditions: COS-7.

The target of data set [5] is T4, Peroxisome proliferator-activated receptor delta (Homo sapiens) (UniProt Q03181).
T4 sequence (whole entry): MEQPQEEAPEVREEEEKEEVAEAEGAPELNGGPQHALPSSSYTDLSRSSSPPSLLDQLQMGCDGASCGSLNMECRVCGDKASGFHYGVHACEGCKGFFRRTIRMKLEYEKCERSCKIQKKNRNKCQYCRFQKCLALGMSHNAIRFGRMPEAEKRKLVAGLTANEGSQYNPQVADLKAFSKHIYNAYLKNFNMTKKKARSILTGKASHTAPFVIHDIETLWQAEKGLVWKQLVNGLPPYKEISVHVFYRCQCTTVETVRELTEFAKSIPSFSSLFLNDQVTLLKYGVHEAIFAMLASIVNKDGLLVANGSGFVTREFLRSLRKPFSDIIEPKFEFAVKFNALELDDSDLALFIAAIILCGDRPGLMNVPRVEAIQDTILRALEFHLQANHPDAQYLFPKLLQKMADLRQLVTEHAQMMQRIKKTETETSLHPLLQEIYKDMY
The data set can be described thus: Agonist activity at human PPARdelta-LBD expressed in COS7 cells co-transfected with Gal4 at 10 uM by luciferase based transactivation assay. As to conditions: COS-7. The format is functional, cell-based.

Data set [6] can be described thus: cells. Particulars: CHO, 24 h.
Description: Modulation of gamma-secretase-mediated cleavage of human APP expressed in CHO cells with human presenilin-1 assessed as inhibition of amyloid beta42 production after 24 hrs by ELISA
Data set [7] has as its target T5, Prostaglandin G/H synthase 2 (Homo sapiens) (UniProt P35354).
T5 sequence (whole entry): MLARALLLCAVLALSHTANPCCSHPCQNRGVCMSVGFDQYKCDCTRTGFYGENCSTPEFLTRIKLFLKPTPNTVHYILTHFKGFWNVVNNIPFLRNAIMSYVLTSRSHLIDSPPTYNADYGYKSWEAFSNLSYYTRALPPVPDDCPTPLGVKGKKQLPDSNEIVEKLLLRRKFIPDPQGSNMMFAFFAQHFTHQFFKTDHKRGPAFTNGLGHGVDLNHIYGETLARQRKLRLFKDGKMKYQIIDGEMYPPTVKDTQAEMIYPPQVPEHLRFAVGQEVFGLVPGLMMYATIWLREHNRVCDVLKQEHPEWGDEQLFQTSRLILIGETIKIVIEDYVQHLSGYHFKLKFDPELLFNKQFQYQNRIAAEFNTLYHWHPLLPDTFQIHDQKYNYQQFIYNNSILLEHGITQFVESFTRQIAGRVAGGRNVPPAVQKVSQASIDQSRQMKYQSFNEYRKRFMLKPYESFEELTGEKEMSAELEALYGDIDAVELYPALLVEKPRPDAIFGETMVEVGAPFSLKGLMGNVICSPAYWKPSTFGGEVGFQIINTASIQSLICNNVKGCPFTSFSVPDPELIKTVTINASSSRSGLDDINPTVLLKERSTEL
As to the kind of experiment: Inhibition of human recombinant COX2 assessed as residual activity at 10 uM after 5 mins.

Data set [8] concerns CHO. As to the kind of experiment: Cytotoxicity against CHO cells at 60 uM after 24 hrs by Alamar blue assay. In kind it is cell-based, Cricetulus griseus. As to conditions: chinese hamster.
In data set [9] the target is T6, Peroxisome proliferator-activated receptor alpha (Homo sapiens) (UniProt Q07869).
T6 sequence (whole entry): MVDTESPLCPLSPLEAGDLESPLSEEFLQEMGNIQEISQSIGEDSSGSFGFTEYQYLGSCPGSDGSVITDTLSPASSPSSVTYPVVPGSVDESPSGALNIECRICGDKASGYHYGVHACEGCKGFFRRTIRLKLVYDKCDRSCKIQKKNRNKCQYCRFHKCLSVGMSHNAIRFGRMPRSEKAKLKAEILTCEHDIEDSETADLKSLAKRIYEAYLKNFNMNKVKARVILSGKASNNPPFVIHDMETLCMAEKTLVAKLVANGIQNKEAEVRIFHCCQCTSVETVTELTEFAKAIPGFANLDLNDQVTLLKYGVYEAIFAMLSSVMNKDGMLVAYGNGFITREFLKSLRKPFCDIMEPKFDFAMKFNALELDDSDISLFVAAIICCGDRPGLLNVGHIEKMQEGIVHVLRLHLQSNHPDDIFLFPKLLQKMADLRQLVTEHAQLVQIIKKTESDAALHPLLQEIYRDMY
The data set can be described thus: Agonist activity at human PPARalpha-LBD expressed in COS7 cells co-transfected with Gal4 at 10 uM by luciferase based transactivation assay. In kind it is functional, cell-based. As to conditions: COS-7.

The target in data set [10] is T7, Prostaglandin G/H synthase 1 (Ovis aries) (UniProt P05979).
T7 sequence (whole entry): T1 sequence (P05979 whole entry)
The data set can be described thus: Inhibition of ovine COX1 assessed as residual activity at 10 uM after 5 mins.

For data set [11], the system named is CHO. The data set can be described thus: Modulation of gamma-secretase-mediated notch signaling expressed in CHO cells transfected with Gal4-DNA-binding/VP16 transactivation domain assessed as reduction of reporter activity at 0.5 uM after 24 hrs. The format is cell-based.
Data set [12] deals with T3, Peroxisome proliferator-activated receptor gamma (Homo sapiens). The data set can be described thus: Agonist activity at human PPARgamma-LBD expressed in COS7 cells co-transfected with Gal4 at 10 uM by luciferase based transactivation assay. Particulars: COS-7.
In data set [13] the test system is CHO. The data set can be described thus: Modulation of gamma-secretase-mediated notch signaling expressed in CHO cells transfected with Gal4-DNA-binding/VP16 transactivation domain assessed as reduction of reporter activity at 5 to 40 uM after 24 hrs. In kind it is cell-based.
Data set [14] concerns the target T1, Prostaglandin G/H synthase 1. The source holds these as a separate data set.
Description: Inhibition of ovine COX1 after 5 mins
Data set [15] has as its target T3, Peroxisome proliferator-activated receptor gamma (Homo sapiens). The data set can be described thus: Agonist activity at human PPARgamma-LBD expressed in COS7 cells co-transfected with Gal4 at 10 uM by luciferase based transactivation assay. The format is functional, cell-based. Particulars: COS-7.
Data set [16] shares this target. As to the kind of experiment: Agonist activity at human PPARgamma-LBD expressed in COS7 cells co-transfected with Gal4 at 6 uM by luciferase based transactivation assay. The format is functional, cell-based. Particulars: COS-7.
For data set [17] the target is unchanged. As to the kind of experiment: Agonist activity at human PPARgamma-LBD expressed in COS7 cells co-transfected with Gal4 at 20 uM by luciferase based transactivation assay. The format is functional, cell-based. Particulars: COS-7.

Results on 11 molecules are retold here after ChEMBL document CHEMBL1177708, “Design, synthesis, and biological evaluation of a novel class of gamma-secretase modulators with PPARgamma activity” (J Med Chem, 2010).

The source made the active and inactive calls. The calls are words filed in the database; no cut-off is given here.

Turning to `CCCCC(Sc1nc(OCCc2ccccc2)cc(OCCc2ccccc2)n1)C(=O)O` (centres undefined), the figures for the IC50 in data set [1] and in data set [6] were 18.7 µM and 22.8 µM, respectively. Besides, the figures for the EC50 in data set [2] and in [3] were 11.3 µM and 8.3 µM, respectively. The Emax in data set [4] worked out at 61%. Also, the outcome in data set [5] and in [9] was inactive. Besides, the Activity in data set [7] is 90.9%; in data set [8], “Non-toxic”; in [10] it was 64.2%.

Regarding `CC(C)C[C@H](NC(=O)[C@H](Cc1ccccc1)C[C@@H](O)[C@H](Cc1ccccc1)NC(=O)OC(C)(C)C)C(=O)N[C@@H](Cc1ccccc1)C(N)=O`, the result in [11] was Active.

Regarding `CCCCC(Sc1nc(OCCC2CCCCCC2)cc(OCCC2CCCCCC2)n1)C(=O)O` (centres undefined), in data set [2], the half-maximal effective concentration (EC50) was found to be 1.9 µM. The outcome in data set [12], in data set [5] and in data set [9] was inactive. In data set [6], the IC50 worked out at 11.3 µM. Further, the Activity in data set [7] is 50.1%; in [8] it was “Non-toxic”; in data set [10] it was 56.1%.

On to `CCCCC(Sc1nc(OCCC2CCCCC2)cc(OCCC2CCCCC2)n1)C(=O)O` (centres undefined), for which the IC50 was determined as 13.4 µM in [1] and 5.1 µM in [6]. The half-maximal effective concentration (EC50) in data set [2] was 4.6 µM; in [3], 6.6 µM. The outcome in data set [13], in data set [5] and in data set [9] was inactive. The same molecule registered an Emax in data set [4] of 71%. In addition, the Activity was 49.5% in data set [7], “Non-toxic” in data set [8] and 52.7% in data set [10].

For the molecule `C[C@@H](C(=O)O)c1ccc(-c2ccccc2)c(F)c1` [TARENFLURBIL], the IC50 in [6] is 305 µM; in data set [14] it was “Not Active”.

For the molecule `CCCCC(Sc1nc(OCCc2ccc(OC)cc2)cc(OCCc2ccc(OC)cc2)n1)C(=O)O` (centres undefined), the EC50 in data set [2] was found to be 6.2 µM. For the same molecule, the Activity in data set [15] was 23%; in [7] it was 94.6%; in data set [8] it was “Non-toxic”; in data set [10] it was 72.8%. In addition, the result in data set [5] and in data set [9] was inactive. Further, in data set [6], it took 19.3 µM to reach half-maximal inhibition (IC50).

As to `CCCCC(Sc1nc(OCCc2ccc([N+](=O)[O-])cc2)cc(OCCc2ccc([N+](=O)[O-])cc2)n1)C(=O)O` (centres undefined), the Activity is 33% in data set [16], 91.6% in [7], “Non-toxic” in data set [8] and 82.1% in data set [10]. Also, the outcome in data set [5] and in data set [9] was inactive. The same molecule yielded an IC50 in [6] of 31.2 µM.

`CCCCC(Sc1nc(OCCc2ccsc2)cc(OCCc2ccsc2)n1)C(=O)O` (centres undefined): the concentration giving a half-maximal response (EC50) in [2] was found to be 17.5 µM. Also, the Activity in data set [17] was 32%; in data set [7], 102%; in [8], “Non-toxic”; in data set [10], 76.6%. The result in data set [5] and in [9] was inactive. The same molecule showed an IC50 in [6] of 37.7 µM.

On to `CCCCC(Sc1nc(OCc2ccccc2)cc(OCc2ccccc2)n1)C(=O)O` (centres undefined), for which the 50% effective concentration (EC50) in data set [2] came to 24.2 µM. Moreover, the Activity in data set [17] was 31%; in data set [7], 61.6%; in [8], “Non-toxic”; in [10], 88.9%. For the same molecule, the result in data set [5] and in data set [9] was inactive. In data set [6], this molecule had an IC50 of 25.2 µM.

In the case of `O=C(O)C(Sc1nc(OCCc2ccccc2)cc(OCCc2ccccc2)n1)c1ccccc1` (centres undefined), the EC50 in [2] was found to be 12.8 µM. Further, the result in data set [12], in [5] and in data set [9] was inactive. In addition, 29.3 µM corresponded to half-maximal inhibition in data set [6] (IC50). Further, the Activity in data set [7] is 86%; in data set [8], “Non-toxic”; in [10] it was 72.2%.

With `CCCC[C@@H](Sc1nc(OCCc2ccccc2)cc(OCCc2ccccc2)n1)C(=O)O`, the EC50 in [2] was 8.4 µM. The Activity in [15] is 22%; in [7], 98.5%; in data set [8], “Non-toxic”; in data set [10] it was 73.9%. The result in data set [5] and in data set [9] was inactive. In data set [6], it took 21.5 µM to reach half-maximal inhibition (IC50).
